Changes are numbered by the printed parent chain. Where two headings read alike, the source gives them in different places.
Experiments:
[1] = target: T1, MGL (Rattus norvegicus, UniProt Q8R431); assay: 2-AG accumulation assay in rat brain homogenate; type: biochemical; conditions: rat brain homogenate, 2-AG accumulation as percent of vehicle; for 2-AG accumulation, % of vehicle control at 1 µM: compound 1 μM, read-out: Rat Brain 2AG % VehCntrl (%) @ 1 μM
T1 construct: one g rat brain was homogenized using a Polytron homogenizer; from tissue; host or cells: rat brain homogenate
T1 sequence (Q8R431 1-303): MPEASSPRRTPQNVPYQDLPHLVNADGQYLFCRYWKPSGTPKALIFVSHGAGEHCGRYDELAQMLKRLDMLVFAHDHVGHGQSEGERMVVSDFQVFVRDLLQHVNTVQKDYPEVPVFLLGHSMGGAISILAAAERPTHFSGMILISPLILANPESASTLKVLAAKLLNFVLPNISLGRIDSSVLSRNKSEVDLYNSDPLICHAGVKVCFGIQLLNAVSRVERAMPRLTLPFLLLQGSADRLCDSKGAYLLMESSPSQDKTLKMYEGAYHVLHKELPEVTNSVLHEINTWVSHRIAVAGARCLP

[2] = target: T2, purified wild type MGL (wt-MGLL 6H-11-313) (Homo sapiens, UniProt Q99685)
T2 sequence (Q99685 1-303): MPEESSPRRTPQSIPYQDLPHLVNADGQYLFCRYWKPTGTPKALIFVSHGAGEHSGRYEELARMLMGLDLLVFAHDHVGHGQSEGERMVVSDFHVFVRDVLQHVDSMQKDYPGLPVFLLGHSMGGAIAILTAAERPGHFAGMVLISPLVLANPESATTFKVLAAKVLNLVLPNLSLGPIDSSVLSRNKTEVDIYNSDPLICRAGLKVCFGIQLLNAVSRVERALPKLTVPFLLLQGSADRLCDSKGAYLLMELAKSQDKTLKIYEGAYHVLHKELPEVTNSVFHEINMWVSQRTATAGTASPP

[3] = target: T3, mutant MGL (Homo sapiens, UniProt Q99685, L169S/L176S); assay: MGL ThermoFluor assay - mutant; type: binding
T3 sequence (Q99685 1-303 L169S/L176S): T2 sequence (Q99685 1-303) with L169S, L176S

[4] = compound concentration measured by qNMR, read-out: MGL mutant ThermoFluor qKd (using qNMR conc.)
[5] = ThermoFluor concentration-response, read-out: MGL mutant ThermoFluor Kd
[6] = ThermoFluor thermal stability binding assay, read-out: MGL mutant ThermoFluor Kd
[7] = ThermoFluor, compound concentration measured by qNMR, read-out: MGL mutant ThermoFluor qKd (using qNMR conc.)
[8] = ThermoFluor, compound concentration measured by qNMR, read-out: MGL mutant ThermoFluor qKd (μM) (using qNMR conc.)

SMILES | 2-AG accumulation, % of vehicle control at 1 µM [1] | IC50 [2] | Kd [3, 5] | further results
COc1c(C(=O)N2CC(N3CCN(C(=O)c4cscn4)CC3)C2)sc2cc(C(F)(F)F)ccc12 [Cpd 700] | 547% | 72 nM | – | Kd [3, 4]: 0.006 µM
N#Cc1cccc(-c2ccc(C(=O)N3CC(N4CCN(C(=O)c5nccs5)CC4)C3)cc2)c1 [Cpd 161, 4′-({3-[4-(1,3-Thiazol-2-ylcarbonyl)piperazin-1-yl]azetidin-1-yl}carbonyl)biphenyl-3-carbonitrile] | 335% | 11.7 nM | 0.0112 µM | –
Cc1cc(C(=O)N2CC(N3CCN(C(=O)c4nccs4)CC3)C2)ccc1-c1ccccc1 [Cpd 1322, 1-{1-[(2-Methylbiphenyl-4-yl)carbonyl]azetidin-3-yl}-4-(1,3-thiazol-2-ylcarbonyl)piperazine] | 457% | < 5 nM | 0.002 µM | –
O=C(c1ccc(-c2ccccc2)cc1)N1CCN(C2CN(C(=O)c3nccs3)C2)CC1 [Cpd 1236, 1-(Biphenyl-4-ylcarbonyl)-4-[1-(1,3-thiazol-2-ylcarbonyl)azetidin-3-yl]piperazine] | 167% | 390 nM | 0.031 µM | –
Cc1c(C(=O)N2CC(N3CCN(C(=O)c4nccs4)CC3)C2)cccc1-c1ccccc1 [Cpd 1234] | 226% | 356 nM | 0.394 µM | –
O=C(c1ccc(-c2cccc(C(F)(F)F)c2)cc1)N1CC(N2CCN(C(=O)c3ccc[nH]3)CC2)C1 [Cpd 1325] | 575% | < 5 nM | – | Kd [3, 6]: 0.006 µM
Cc1cccc(-n2ccc3cc(C(=O)N4CC(N5CCN(C(=O)c6nccs6)CC5)C4)ccc32)n1 [Cpd 1126, 1-(6-Methylpyridin-2-yl)-5-({3-[4-(1,3-thiazol-2-ylcarbonyl)piperazin-1-yl]azetidin-1-yl}carbonyl)-1H-indole] | 850% | 19 nM | – | Kd [3, 7]: 0.008 µM
O=C(c1nn(-c2ccc(Cl)cc2Cl)c2c1CSC/C2=C\c1ccc(F)cc1)N1CC(N2CCN(C(=O)C(F)(F)F)CC2)C1 [Cpd 1022] | 189% | 67 nM | 0.228 µM | Kd [3, 4]: 1.06 µM
O=C(c1ccc2c(-c3cccc(C(F)(F)F)c3)c[nH]c2c1)N1CC(N2CCN(C(=O)c3cscn3)CC2)C1 [Cpd 1345] | 459% | < 5 nM | 0.006 µM | –
O=C(c1ccc(Sc2cccc(Cl)c2)cc1)N1CC(N2CCN(C(=O)C(F)(F)F)CC2)C1 [Cpd 677] | 141% | 21 nM | – | Kd [3, 4]: 0.432 µM
Cc1c(C(=O)N2CC(N3CCN(C(=O)c4nccs4)CC3)C2)n(C)c2ccc(Cl)cc12 [Cpd 696] | 444% | 59 nM | – | Kd [3, 7]: 0.063 µM
O=C(c1ccccc1)N1CCN(C2CN(C(=O)c3cc4cccc(C(F)(F)F)c4s3)C2)CC1 [Cpd 329, 1-(Phenylcarbonyl)-4-(1-{[7-(trifluoromethyl)-1-benzothiophen-2-yl]carbonyl}azetidin-3-yl)piperazine] | – | 1220 nM | – | 2-AG accumulation, % of vehicle control at 10 µM ([1]; compound 10 μM, read-out: Rat Brain 2AG % VehCntrl (%) @ 10 μM): 520%; Kd [3, 6]: 0.0626 µM
O=C(c1ccc2c(ccn2-c2ccc(OC(F)(F)F)cc2)c1)N1CC(N2CCN(C(=O)c3cscn3)CC2)C1 [Cpd 1370] | 773% | < 5 nM | – | Kd [3, 8]: 0.013 µM
Cc1c(Cc2ccc(C(F)(F)F)cc2)cccc1C(=O)N1CC(N2CCN(C(=O)c3cscn3)CC2)C1 [Cpd 1009] | 706% | 65 nM | 0.589 µM | –
O=C(c1ccc[nH]1)N1CCN(C2CN(C(=O)c3nn(-c4ccc(Cl)cc4Cl)c4c3CSC/C4=C\c3ccc(F)cc3)C2)CC1 [Cpd 1024] | 281% | 69 nM | – | Kd [3, 4]: 0.135 µM
O=C(c1ccc2c(ccn2-c2ccc(OC(F)(F)F)cc2)c1)N1CC(N2CCN(C(=O)c3nccs3)CC2)C1 [Cpd 1369] | 874% | < 5 nM | – | Kd [3, 8]: 0.002 µM
O=C(c1ccc(Oc2cccc(Cl)c2)c(F)c1)N1CC(N2CCN(C(=O)c3nccs3)CC2)C1 [Cpd 875] | 499% | < 5 nM | 0.01 µM | 2-AG accumulation, % of vehicle control at 0.1 µM ([1]; compound 0.1 μM, read-out: Rat Brain 2AG % VehCntrl (%) @ 0.1 μM): 232%
CCCCc1ccc(C(=O)N2CC(N3CCN(C(=O)c4nccs4)CC3)C2)cc1 [Cpd 894] | 534% | < 5 nM | 0.006 µM | –
O=C(c1ccc(-c2ccc(Br)cc2)cc1)N1CC(N2CCN(C(=O)c3cscn3)CC2)C1 [Cpd 172, 1-{1-[(4′-Bromobiphenyl-4-yl)carbonyl]azetidin-3-yl}-4-(1,3-thiazol-4-ylcarbonyl)piperazine] | 217% | 7.3 nM | 0.1 µM | –
O=C(c1nccs1)N1CCN(C2CN(C(=O)c3cccc4nc(-c5ccccc5)oc34)C2)CC1 [Cpd 1154, 2-Phenyl-7-({3-[4-(1,3-thiazol-2-ylcarbonyl)piperazin-1-yl]azetidin-1-yl}carbonyl)-1,3-benzoxazole] | 558% | 40 nM | – | Kd [3, 6]: 0.006 µM
Cc1cc(C(=O)N2CC(N3CCN(C(=O)c4cscn4)CC3)C2)ccc1-c1ccc(F)c(Cl)c1 [Cpd 257, 1-{1-[(3′-Chloro-4′-fluoro-2-methylbiphenyl-4-yl)carbonyl]azetidin-3-yl}-4-(1,3-thiazol-4-ylcarbonyl)piperazine] | 285% | < 5 nM | – | Kd [3, 6]: 0.0033 µM
O=C(c1ccccc1)N1CCN(C2CN(C(=O)c3ccc(Oc4ncc(C(F)(F)F)cc4Cl)cc3)C2)CC1 [Cpd 507] | 190% | 52 nM | 0.317 µM | –
O=C(c1ccc2c(c1)CCN2c1ccc(F)cc1)N1CC(N2CCN(C(=O)c3cscn3)CC2)C1 [Cpd 1081] | 622% | 9 nM | – | Kd [3, 4]: 0.019 µM
Cc1c(C(=O)N2CC(N3CCN(C(=O)c4cscn4)CC3)C2)sc2ccc(-c3ccccc3)cc12 [Cpd 1058, 1-{1-[(3-Methyl-5-phenyl-1-benzothiophen-2-yl)carbonyl]azetidin-3-yl}-4-(1,3-thiazol-4-ylcarbonyl)piperazine] | 590% | 6 nM | 0.007 µM | –
O=C(c1ccccc1)N1CCN(C2CN(C(=O)c3sc4ccc(Cl)cc4c3C(F)(F)F)C2)CC1 [Cpd 506] | 132% | 48 nM | 0.059 µM | –
O=C(c1cc(-c2cccc(F)c2)cs1)N1CC(N2CCN(C(=O)c3nccs3)CC2)C1 [Cpd 1160] | 260% | 45 nM | – | Kd [3, 8]: 0.139 µM
O=C(c1ccc(-c2ccc(Br)cc2)cc1)N1CC(N2CCN(C(=O)c3nccs3)CC2)C1 [Cpd 168, 1-{1-[(4′-Bromobiphenyl-4-yl)carbonyl]azetidin-3-yl}-4-(1,3-thiazol-2-ylcarbonyl)piperazine] | 813% | < 5 nM | 0.01 µM | –
O=C(c1ccc(-c2ccccc2)cc1)N1CCN(C2CN(C(=O)c3ccns3)C2)CC1 [Cpd 1235, 1-(Biphenyl-4-ylcarbonyl)-4-[1-(isothiazol-5-ylcarbonyl)azetidin-3-yl]piperazine] | 100% | 360 nM | 0.124 µM | –
O=C(c1ccc(-c2ccc(C(F)(F)F)s2)cc1)N1CC(N2CCN(C(=O)c3cscn3)CC2)C1 [Cpd 1071, 1-(1,3-Thiazol-4-ylcarbonyl)-4-[1-({4-[5-(trifluoromethyl)thiophen-2-yl]phenyl}carbonyl)azetidin-3-yl]piperazine] | 552% | 8 nM | 0.025 µM | –
O=C(c1cc(-c2ccc(Cl)cc2)n(-c2ccc(Cl)c(Cl)c2)n1)N1CC(N2CCN(C(=O)c3nccs3)CC2)C1 [Cpd 1083] | 299% | 9 nM | – | Kd [3, 7]: 0.065 µM

Reference: patent US8362000B2, “Azetidinyl diamides as monoacylglycerol lipase inhibitors” (Janssen Pharmaceutica NV, priority 2009, dated 2013)
